Experimental data reported in patent EP0527889B1, “QUINOLIZINONE TYPE COMPOUNDS” (priority 1990, dated 1991).
In brackets after ≈: the same amount, converted by molar mass.

How the values were obtained:
Assay in all cases: In vitro antibacterial activity, MIC by agar dilution
Type in all cases: cell-based
Settings in all cases: BHI agar, 35-37°C, 20-24 hours, unit assumed
[1] = tested on: Pseudomonas aeruginosa K799/61
Method: (§1) Each plate was inoculated with 1:100 (or 1:10 for slow growing strains, primarily Micrococcus and Streptococcus) dilutions of up to 32 different microorganisms, using a Steers replicator block calibrated to deliver approximately 10^4 colony forming units (CFUs). The inoculated plates were incubated at from about 35°C to about 37°C for approximately 20-24 hours. In addition, a control plate using BHI agar containing no test compound was prepared and incubated at the beginning and at the end of each test. Ciprofloxacin was used as the control antibiotic.
(§2) The MIC was defined as the lowest concentration of test compound yielding no growth (a slight haze or sparsely isolated colonies at the inoculum spot) as compared to the growth control containing no test compound.

[2] = tested on: Staphylococcus epidermidis 3519
Method: as §1, §2

[3] = tested on: Streptococcus pyrogenes CONST
Method: as §1, §2

[4] = tested on: Staphylococcus aureus NCTC 10649
Method: as §1, §2

[5] = tested on: Pseudomonas aeruginosa 2862
Method: as §1, §2

[6] = tested on: Streptococcus pyrogenes EES61
Method: as §1, §2

[7] = tested on: Pseudomonas aeruginosa BMH10
Method: as §1, §2

[8] = tested on: Pseudomonas aeruginosa A5007
Method: as §1, §2

[9] = tested on: Staphylococcus aureus A-5278
Method: as §1, §2

[10] = tested on: Streptococcus agalactaciae CMX 508
Method: as §1, §2

[11] = tested on: Pseudomonas aeruginosa K799/WT
Method: as §1, §2

[12] = tested on: Acinetobacter calcoaceticus CMX 669
Method: as §1, §2

[13] = tested on: Pseudomonas aeruginosa 5263
Method: as §1, §2

[14] = tested on: Streptococcus pyrogenes 2548 INDUC
Method: as §1, §2

[15] = tested on: Providencia stuartii CMX 640
Method: as §1, §2

[16] = tested on: Micrococcus luteus ATCC 4698
Method: as §1, §2

[17] = tested on: Staphylococcus aureus 1775
Method: as §1, §2

[18] = tested on: Micrococcus luteus ATCC 9341
Method: as §1, §2

[19] = tested on: Escherichia coli SS
Method: as §1, §2

[20] = tested on: Enterococcus faecium ATCC 8043
Method: as §1, §2

[21] = tested on: Staphylococcus aureus 642A
Method: as §1, §2

[22] = tested on: Escherichia coli DC-2
Method: as §1, §2

[23] = tested on: Escherichia coli KNK 437
Method: as §1, §2

[24] = tested on: Enterobacter aerogenes ATCC 13048
Method: as §1, §2

[25] = tested on: Staphylococcus aureus A5177
Method: as §1, §2

[26] = tested on: Staphylococcus aureus CMX 553
Method: as §1, §2

[27] = tested on: Pseudomonas cepacia 296I
Method: as §1, §2

[28] = tested on: Staphylococcus aureus ATCC 6538P
Method: as §1, §2

[29] = tested on: Klebsiella pneumoniae ATCC 8045
Method: as §1, §2

[30] = tested on: Streptococcus bovis A5169
Method: as §1, §2

[31] = tested on: Escherichia coli H560
Method: as §1, §2

[32] = tested on: Escherichia coli JUHL
Method: as §1, §2

| Structure (SMILES) | MIC values [1] [µg/mL] | MIC values [2] [µg/mL] | MIC values [3] [µg/mL] | MIC values [4] [µg/mL] | MIC values [5] [µg/mL] | MIC values [6] [µg/mL] | MIC values [7] [µg/mL] | MIC values [8] [µg/mL] | MIC values [9] [µg/mL] | MIC values [10] [µg/mL] | MIC values [11] [µg/mL] | MIC values [12] [µg/mL] | MIC values [13] [µg/mL] | MIC values [14] [µg/mL] | MIC values [15] [µg/mL] | MIC values [16] [µg/mL] | MIC values [17] [µg/mL] | MIC values [18] [µg/mL] | MIC values [19] [µg/mL] | MIC values [20] [µg/mL] | also measured |
| --- | --- | --- | --- | --- | --- | --- | --- | --- | --- | --- | --- | --- | --- | --- | --- | --- | --- | --- | --- | --- | --- |
| NC1CCN(c2nc3c(-c4ccc(F)cc4F)cc(C(=O)O)c(=O)n3cc2F)C1 (centres unmarked) [Example 161, 2-(3-Aminopyrrolidin-1-yl)-9-(2,4-difluorophenyl)-3-fluoro-6H-6-oxopyrido[1,2-a]pyrimidine-7-carboxylic acid] | 0.05 (≈ 0.124 µM) | 0.1 (≈ 0.247 µM) | 0.39 (≈ 0.965 µM) | 0.05 (≈ 0.124 µM) | 100 (≈ 247 µM) | 0.39 (≈ 0.965 µM) | 0.2 (≈ 0.495 µM) | 0.2 (≈ 0.495 µM) | 0.1 (≈ 0.247 µM) | 0.39 (≈ 0.965 µM) | 0.2 (≈ 0.495 µM) | 0.05 (≈ 0.124 µM) | 100 (≈ 247 µM) | 0.1 (≈ 0.247 µM) | 1.56 (≈ 3.86 µM) | 3.1 (≈ 7.67 µM) | 100 (≈ 247 µM) | 3.1 (≈ 7.67 µM) | 0.005 (≈ 0.0124 µM) | 0.78 (≈ 1.93 µM) | MIC values [21]: 0.1 µg/mL (≈ 0.247 µM); MIC values [22]: 0.2 µg/mL (≈ 0.495 µM); MIC values [23]: 0.2 µg/mL (≈ 0.495 µM); MIC values [24]: 0.05 µg/mL (≈ 0.124 µM); MIC values [25]: 0.1 µg/mL (≈ 0.247 µM); MIC values [26]: 0.1 µg/mL (≈ 0.247 µM); MIC values [27]: 3.1 µg/mL (≈ 7.67 µM); MIC values [28]: 0.05 µg/mL (≈ 0.124 µM); MIC values [29]: 0.01 µg/mL (≈ 0.0247 µM); MIC values [30]: 1.56 µg/mL (≈ 3.86 µM); MIC values [31]: 0.02 µg/mL (≈ 0.0495 µM); MIC values [32]: 0.02 µg/mL (≈ 0.0495 µM) |
| CN1CCN(c2nc3c(-c4ccc(F)cc4F)cc(C(=O)O)c(=O)n3cc2F)CC1 [Example 159, 9-(2,4-Difluorophenyl)-3-fluoro-2-(4-methylpiperazin-1-yl)-6H-6-oxopyridol[1,2-a]pyrimidine-7-carboxylic acid] | 0.39 (≈ 0.932 µM) | 0.39 (≈ 0.932 µM) | 3.1 (≈ 7.41 µM) | 0.2 (≈ 0.478 µM) | > 100 | 3.1 (≈ 7.41 µM) | 3.1 (≈ 7.41 µM) | 6.2 (≈ 14.8 µM) | 0.2 (≈ 0.478 µM) | 3.1 (≈ 7.41 µM) | 3.1 (≈ 7.41 µM) | 0.78 (≈ 1.86 µM) | > 100 | 3.1 (≈ 7.41 µM) | 25 (≈ 59.8 µM) | 12.5 (≈ 29.9 µM) | > 100 | 25 (≈ 59.8 µM) | 0.02 (≈ 0.0478 µM) | 6.2 (≈ 14.8 µM) | MIC values [21]: 0.39 µg/mL (≈ 0.932 µM); MIC values [22]: 6.2 µg/mL (≈ 14.8 µM); MIC values [23]: 6.2 µg/mL (≈ 14.8 µM); MIC values [24]: 0.78 µg/mL (≈ 1.86 µM); MIC values [25]: 0.39 µg/mL (≈ 0.932 µM); MIC values [26]: 0.39 µg/mL (≈ 0.932 µM); MIC values [27]: 25 µg/mL (≈ 59.8 µM); MIC values [28]: 0.2 µg/mL (≈ 0.478 µM); MIC values [29]: 0.2 µg/mL (≈ 0.478 µM); MIC values [30]: 12.5 µg/mL (≈ 29.9 µM); MIC values [31]: 0.39 µg/mL (≈ 0.932 µM); MIC values [32]: 0.39 µg/mL (≈ 0.932 µM) |
| O=C(O)c1cc(-c2ccc(F)cc2F)c2nc(N3CCC(O)C3)c(F)cn2c1=O (centres unmarked) [Example 170, 9-(2,4-Difluorophenyl)-3-fluoro-2-(3-hydroxypyrrolidin-1-yl)-6H-6-oxopyrido[1,2-a]pyrimidine-7-carboxylic acid] | 0.05 (≈ 0.123 µM) | 0.2 (≈ 0.493 µM) | 0.78 (≈ 1.92 µM) | 0.05 (≈ 0.123 µM) | > 100 | 0.78 (≈ 1.92 µM) | 0.78 (≈ 1.92 µM) | 0.78 (≈ 1.92 µM) | 0.1 (≈ 0.247 µM) | 0.78 (≈ 1.92 µM) | 0.78 (≈ 1.92 µM) | 0.2 (≈ 0.493 µM) | > 100 | 0.39 (≈ 0.962 µM) | 6.2 (≈ 15.3 µM) | 1.56 (≈ 3.85 µM) | 100 (≈ 247 µM) | 12.5 (≈ 30.8 µM) | 0.001 (≈ 0.00247 µM) | 0.78 (≈ 1.92 µM) | MIC values [21]: 0.1 µg/mL (≈ 0.247 µM); MIC values [22]: 3.1 µg/mL (≈ 7.65 µM); MIC values [23]: 1.56 µg/mL (≈ 3.85 µM); MIC values [24]: 0.39 µg/mL (≈ 0.962 µM); MIC values [25]: 0.1 µg/mL (≈ 0.247 µM); MIC values [26]: 0.2 µg/mL (≈ 0.493 µM); MIC values [27]: 6.2 µg/mL (≈ 15.3 µM); MIC values [28]: 0.05 µg/mL (≈ 0.123 µM); MIC values [29]: 0.05 µg/mL (≈ 0.123 µM); MIC values [30]: 6.2 µg/mL (≈ 15.3 µM); MIC values [31]: 0.1 µg/mL (≈ 0.247 µM) |
